How the values were obtained:
Parameters in all cases: key: R: resistant; S: susceptible; I: intermediate
H. bilis = settings: 30 μg; taxon 8 H. bilis; cited from earlier work
H. acinonychis = settings: 30 μg; taxon 7 H. acinonychis; cited from earlier work
H. baculiformis M50T = test: Susceptibility to antimicrobials (30 μg); type: cell-based; settings: taxon 1 H. baculiformis (this study)
From the text: Data were obtained from Bronsdon et al. (1991), Dewhirst et al. (2000a), Eaton et al. (1993), Fox et al. (1988, 1995), Hänninen et al. (1996, 2005), Jalava et al. (1997) Int J Syst Bacteriol 47, 975-982, Lee et al. (1988, Infect Immun 56, 2843-2850, 1992), Mendes et al. (1996); Patterson et al. (2000), Van den Buick et al. (2006, Int J Syst Evol Microbiol 56, 1559-1564).

H. trogontum = settings: 30 μg; taxon 9 H. trogontum; cited from earlier work
H. bizzozeronii = settings: 30 μg; taxon 3 H. bizzozeronii; cited from earlier work
H. muridarum = settings: 30 μg; taxon 12 H. muridarum; cited from earlier work
H. aurati = settings: 30 μg; taxon 13 H. aurati; cited from earlier work
H. felis = settings: 30 μg; taxon 4 H. felis; cited from earlier work
H. salomonis = settings: 30 μg; taxon 5 H. salomonis; cited from earlier work
H. nemestrinae = settings: 30 μg; taxon 11 H. nemestrinae; cited from earlier work
H. mustelae = settings: 30 μg; taxon 10 H. mustelae; cited from earlier work
H. pylori = settings: 30 μg; taxon 6 H. pylori; cited from earlier work

Structure (SMILES) | Susceptibility to (H. bilis) | Susceptibility to (H. acinonychis) | Susceptibility to (H. baculiformis M50T) | Susceptibility to (H. trogontum) | Susceptibility to (H. bizzozeronii) | Susceptibility to (H. muridarum) | Susceptibility to (H. aurati) | Susceptibility to (H. felis) | Susceptibility to (H. salomonis) | Susceptibility to (H. nemestrinae) | Susceptibility to (H. mustelae) | Susceptibility to (H. pylori)
CC(=O)OCC1=C(C(=O)O)N2C(=O)[C@@H](NC(=O)Cc3cccs3)[C@H]2SC1 [Cephalothin] | R | S | R | R | S | R | R | S | S | S | R | S
CCn1cc(C(=O)O)c(=O)c2ccc(C)nc21 [Nalidixic acid] | R | R | I | R | R | R | S | R | R | R | S | R

— patent publication US7790143B2, “Vaccines for immunization against helicobacter” (priority 2005, dated 2010)
